PMC10079954, “Rational design of phase separating peptides based on phase separating protein sequence of p53” (Scientific Reports, 2023)

Columns and labels:
[1] = Single-molecule fluorescence tracking (HILO) of labeled molecules in their droplets; type: physicochemical; conditions: Alexa488-labeled peptide 10–100 pM in 0.9 mM non-labeled peptide droplets; 25 mM HEPES, 0.5 mM EDTA, 45 mM NaCl, 150 mg/mL dextran, pH 7.0; linear fit of MSD (4D slope)
Description: We quantitatively characterized the liquid droplet properties of the four designed peptides and compared them with those of p53. We measured the fusion of the designed peptide droplets in the solution used for p53 droplets (Supplementary Fig. S4). In the presence of 45 mM NaCl and 150 mg/mL dextran, the fusion of droplets for the four designed peptides was observed within 0.2 s, which was much faster than that for p53 (3.7 min)[8]. This gap in the fusion period implies different intrinsic dynamic properties. We measured the movement of Alexa488-labeled peptides within non-labeled peptide droplets using single-molecule fluorescence microscopy with a highly inclined and laminated optical sheet (HILO) illumination[37],[41] (Fig. 3A). […]
Single-molecule measurements were performed following the method described in our previous studies[37],[41]. An inverted fluorescence microscope (IX-73; Olympus) with a total internal reflection fluorescence unit (IX3RFAEVAW; Olympus) was used[52],[53]. […] The fluorescence collected via the objective lens was detected using an EM-CCD camera (iXon Ultra 888, Andor). […] Images were recorded at intervals of 15–154 ms after reducing the number of observable molecules in the droplets by photobleaching within one minute. […]

[2] = Cross-β structure detection with amyloid-sensitive probe Picogreen; type: physicochemical
Description: Differential interference contrast (DIC) microscopy confirmed that these peptides (0.9–1.8 mM) underwent phase separation in 25 mM HEPES and 0.5 mM EDTA at pH 7.0 (Fig. 2B). To prevent the melting of clusters on the coverslip surface, 2-methacryloyloxyethyl phosphorylcholine (MPC) polymer coating was used[36],[37] (Supplementary Fig. S1). Samples were prepared by sonicating a 2 mM peptide solution or diluting the peptide solution from a 10 mM peptide stock after storage under freezing conditions. Four of the designed peptides, except DPp53N-GSGS-DPp53C2, formed μm-sized spherical clusters. Fluorescence microscopy confirmed the high concentration of peptides labeled with the fluorescent dye Alexa488 in the clusters (Fig. 2B). […] Cross-β structure was also supported by the observation of intrinsic fluorescence upon 400–440 nm excitation[40] (Supplementary Fig. S2). Clusters of aromatic W residues in DPp53N-GSGS-DPp53C2 may lead to the formation of solid aggregates, which is consistent with the results of different systems[21],[34].
The DIC and fluorescence modes of an inverted microscope (IX-73; Olympus, Tokyo, Japan) equipped with microscopic objectives (60 × and 10 ×) and a camera (DP74) were used, as described previously. We used the solution containing 0.9–1.8 mM designed peptide, 0.1 μM Alexa488-labeled peptide, 25 mM HEPES, and 0.5 mM EDTA at pH 7.0. To detect the cross-β structure, picogreen was added at 25 µM for DPp53N-GSGS-DPp53C2 or 2.5 µM for others instead of the Alexa488-labeled peptide. […] DIC and fluorescence images were obtained at 20 or 22 °C. For intrinsic fluorescence measurements, the excitation and detection wavelengths were 440–440 nm and larger than 460 nm, respectively.
Fig. S8 Time course of cross-β structure formation of designed peptides in droplets monitored by DIC and fluorescence images. The fluorescence was detected corresponding to the amyloid marker Picogreen at 2.5 µM in a solution containing 0.9 mM designed peptides, 25 mM HEPES, and 0.5 mM EDTA at pH 7.0 and 22 °C.

Average diffusion coefficient (D) in own droplets [1]: 2.03 ± 0.06 μm^2/s
Picogreen fluorescence intensity in droplets versus solution ([2]; Picogreen 2.5 µM, 0.9 mM designed peptide, 25 mM HEPES, 0.5 mM EDTA, pH 7.0, 22 °C): higher than that in the solution
Cross-β structure and state of droplets after long-term incubation ([2]; long-term incubation): gel-like assemblies of the droplets
Sequence: RRRVVQRRRRGGGSGGGSGGGSDDDASQEDDD [DPp53N-(GGGS)3-DPp53C1]
